Measurements reported in PMC8026479 (Cancer Chemotherapy and Pharmacology, 2021).
Like-named read-outs stand apart in the source and are kept apart here.

Legend:
[1] = tested on: transition rate constant from G1 to cycling for HSPCs; experiment: Semi-mechanistic multi-compartment PK/PD model of hematopoiesis; set-up: species or system mouse, rat, and dog
Source text: Owing to the invasive nature of the PD marker collection (i.e. bone marrow aspiration), a semi-mechanistic PK/PD model based on animal PK/PD data and human PK data was developed to guide the selection of an optimal dose level for bone marrow aspiration in humans during dose escalation in the Phase I first-in-human study. The model was constructed using PK data from four species (mouse, rat, dog, and human) and PD data from three species (mouse, rat, and dog; Online Resources 1 and 2).
The PK/multi-compartment PD model was based on a myelosuppression model previously published by Friberg et al., with modifications. […] In the model used in the current study, stem cells and progenitor cells were separated into two compartments, with experimental data measured for each compartment. […] Another important deviation from the Friberg model was the mechanism postulated for the homeostasis of the […] (PMNs). We postulated that the feedback mechanism has a set point target and that deviations from that target would accelerate (in the case of too few PMNs) or decelerate (in the case of too many PMNs) the transition of G1-phase cells to S-phase cells in the stem cell population.
The model was constructed in two stages. First, preclinical PK data (e.g. doses, routes, and schedule of administration, observed concentrations) were compiled and modeled by allometric scaling. A sequential PK/PD modeling approach (population PK parameters and data approach) was then employed in which a semi-mechanistic PD model with various physiological compartments was created, and specific assumptions entered (Online Resource 3). Traditional forward addition/backward elimination was used for PK modeling. […] Many parameters in this complex model could not be estimated and were fixed either to the literature values or values selected on the basis of discussions with domain experts and sensitivity analysis. In preclinical animal models, the PD analysis modeled bone marrow cells positive for 5′-ethynyl-2′-deoxyuridine (EdU) and peripheral neutrophil counts simultaneously. […]

[2] = Study G1T28-02 Part 1 plasma PK (with E/P); type: in vivo, human; conditions: ES-SCLC + E/P; for Vd: read-out: Vz; for Tmax: range; for AUC: read-out: AUCtau (AUC0-inf, footnote a)
Source text: G1T28-02 (NCT02499770) was a multicentre Phase Ib/IIa study in patients with newly diagnosed ES-SCLC [5]. Eligible patients were aged ≥ 18 years and had histologically or cytologically confirmed ES-SCLC, measurable disease per Response Evaluation Criteria in Solid Tumors (RECIST) version 1.1, an Eastern Cooperative Oncology Group (ECOG) performance status of 0–2, and adequate organ function. […] In the dose-finding Part 1 portion, blood samples for PK analysis were collected at prespecified time points on Cycle 1 Day 1 and Cycle 1 Day 3 (200 mg/m^2 cohort: all patients; 240 mg/m^2 cohort: optional).

[3] = Study G1T28-03 Part 1 plasma PK (with topotecan); type: in vivo, human; conditions: for Cmax / T1/2 / AUC(0-inf) / clearance / Vd / half-life: geometric mean; for Vd: read-out: Vz; for Tmax: range
Source text: G1T28-03 (NCT02514447) was a multicentre Phase Ib/IIa study in patients with previously treated ES-SCLC [14]. […] Part 1 was a Phase Ib, open-label, dose-finding portion. Part 2 was a Phase IIa, randomized, double-blind, placebo-controlled portion. […] In Part 1 of the study, blood samples for PK analysis were collected at prespecified time points on Cycle 1 Day 1 and Cycle 1 Day 4 for all patients.

[4] = 200 mg/m2, Cycle 1 Day 3 (n = 8), mean
[5] = 240 mg/m2, Cycle 1 Day 1 (n = 1)
[6] = human, plasma, intravenous, 200 mg/m2, Cycle 1 Day 1 (n = 8), mean
[7] = human, plasma, intravenous, 200 mg/m2, Cycle 1 Day 3 (n = 8), mean
[8] = human, plasma, intravenous, 240 mg/m2, Cycle 1 Day 1 (n = 1)
[9] = human, plasma, intravenous, 240 mg/m2, Cycle 1 Day 3 (n = 1)
[10] = ES-SCLC + topotecan, 280 mg/m2, Cycle 1 Day 1 (n = 7)
[11] = human, plasma, 200 mg/m2, ES-SCLC + topotecan, 200 mg/m2, Cycle 1 Day 4 (n = 9)
[12] = human, plasma, 280 mg/m2, ES-SCLC + topotecan, 280 mg/m2, Cycle 1 Day 1 (n = 7)
[13] = human, plasma, 280 mg/m2, ES-SCLC + topotecan, 280 mg/m2, Cycle 1 Day 4 (n = 7)
[14] = human, plasma, ES-SCLC + topotecan, 200 mg/m2, Cycle 1 Day 1 (n = 10)
[15] = human, plasma, ES-SCLC + topotecan, 240 mg/m2, Cycle 1 Day 1 (n = 14)
[16] = human, plasma, ES-SCLC + topotecan, 240 mg/m2, Cycle 1 Day 4 (n = 15)

- EC50, final PD model (concentration of G1T28 with 50% max effect) ([1]; plasma concentration, Emax effect on G1-to-cycling transition of HSPCs, model estimate): 5.9 ng/mL
- EC90 (therapeutically active) ([1]; predicted from model EC50): approximately 50 ng/mL
- Cmax [2, 4]: 1620 ng/mL
- T1/2 [2, 4]: 9.12 h
- AUC(0-inf) [2, 5]: 2280 ng·h/mL
- Cmax [2, 5]: 1570 ng/mL
- clearance [2, 6]: 2500 mL/min
- AUC(0-inf) ([2]; human, plasma, intravenous, 200 mg/m2, Cycle 1 Day 1 (n = 8), mean, read-out: AUC0-inf): 2560 ng·h/mL
- Cmax ([2]; human, plasma, intravenous, 200 mg/m2, Cycle 1 Day 1 (n = 8), mean, read-out: Cmax): 1240 ng/mL
- Vd [2, 6]: 1700 L
- Tmax ([2]; human, plasma, intravenous, 200 mg/m2, Cycle 1 Day 1 (n = 8)): 0.45 to 0.98 h
- clearance [2, 7]: 2230 mL/min
- AUC [2, 7]: 3110 ng·h/mL
- Vd [2, 7]: 1770 L
- Tmax ([2]; human, plasma, intravenous, 200 mg/m2, Cycle 1 Day 3 (n = 8)): 0.47 to 1 h
- clearance [2, 8]: 3850 mL/min
- half-life [2, 8]: 2.91 h
- Vd [2, 8]: 967 L
- clearance [2, 9]: 3000 mL/min
- half-life [2, 9]: 4.03 h
- AUC [2, 9]: 2960 ng·h/mL
- Cmax ([2]; human, plasma, intravenous, 240 mg/m2, Cycle 1 Day 3 (n = 1), read-out: Cmax): 2260 ng/mL
- Vd [2, 9]: 1050 L
- Cmax ([3]; ES-SCLC + topotecan, 200 mg/m2, Cycle 1 Day 4 (n = 9)): 1060 ng/mL
- T1/2 ([3]; ES-SCLC + topotecan, 240 mg/m2, Cycle 1 Day 1 (n = 14)): 6.79 h
- Cmax [3, 10]: 1110 ng/mL
- T1/2 [3, 10]: 7.38 h
- accumulation on repeated daily dosing ([3]; G1T28-03 Part 1, 280 mg/m2, Day 1 vs Day 4, not observed at lower dose levels): resulted in drug accumulation
- AUC(0-inf) ([3]; human, plasma, 200 mg/m2, ES-SCLC + topotecan, 200 mg/m2, Cycle 1 Day 1 (n = 10), read-out: AUC0-inf): 2410 ng·h/mL
- clearance [3, 11]: 2850 mL/min
- Vd [3, 11]: 2120 L
- Tmax [3, 11]: 0.38 to 0.58 h
- AUC(0-inf) ([3]; human, plasma, 240 mg/m2, ES-SCLC + topotecan, 240 mg/m2, Cycle 1 Day 1 (n = 14), read-out: AUC0-inf): 2910 ng·h/mL
- Tmax ([3]; human, plasma, 240 mg/m2, ES-SCLC + topotecan, 240 mg/m2, Cycle 1 Day 1 (n = 14)): 0.4 to 0.7 h
- AUC(0-inf) ([3]; human, plasma, 240 mg/m2, ES-SCLC + topotecan, 240 mg/m2, Cycle 1 Day 4 (n = 15), read-out: AUCtau (AUC0-inf, footnote a)): 2880 ng·h/mL
- Vd ([3]; human, plasma, 240 mg/m2, ES-SCLC + topotecan, 240 mg/m2, Cycle 1 Day 4 (n = 15)): 1730 L
- clearance [3, 12]: 2680 mL/min
- AUC(0-inf) ([3]; human, plasma, 280 mg/m2, ES-SCLC + topotecan, 280 mg/m2, Cycle 1 Day 1 (n = 7), read-out: AUC0-inf): 3490 ng·h/mL
- Vd [3, 12]: 1720 L
- Tmax [3, 12]: 0.42 to 0.62 h
- clearance [3, 13]: 2080 mL/min
- AUC(0-inf) ([3]; human, plasma, 280 mg/m2, ES-SCLC + topotecan, 280 mg/m2, Cycle 1 Day 4 (n = 7), read-out: AUCtau (AUC0-inf, footnote a)): 4520 ng·h/mL
- Vd [3, 13]: 1530 L
- Tmax [3, 13]: 0.42 to 0.55 h
- clearance [3, 14]: 2750 mL/min
- half-life [3, 14]: 6.92 h
- Vd [3, 14]: 1650 L
- Tmax [3, 14]: 0.42 to 0.67 h
- clearance [3, 15]: 2420 mL/min
- Cmax ([3]; human, plasma, ES-SCLC + topotecan, 240 mg/m2, Cycle 1 Day 1 (n = 14), read-out: Cmax): 1270 ng/mL
- Vd [3, 15]: 1430 L
- Tmax [3, 16]: 0.38 to 1.5 h
- half-life ([3]; human, plasma, ES-SCLC + topotecan, 200 mg/m2, Cycle 1 Day 4 (n = 9)): 8.57 h
- clearance [3, 16]: 2470 mL/min
- Cmax ([3]; human, plasma, ES-SCLC + topotecan, 240 mg/m2, Cycle 1 Day 4 (n = 15), read-out: Cmax): 1220 ng/mL
- half-life ([3]; human, plasma, ES-SCLC + topotecan, 280 mg/m2, Cycle 1 Day 4 (n = 7)): 8.54 h
- Cmax ([3]; human, plasma, ES-SCLC + topotecan, 280 mg/m2, Cycle 1 Day 4 (n = 7), read-out: Cmax): 2220 ng/mL
Compound: CN1CCN(c2ccc(Nc3ncc4cc5n(c4n3)C3(CCCCC3)CNC5=O)nc2)CC1 [trilaciclib]
